Active and inactive are the calls of the source.
Columns and labels:
Hexokinase HKDC1 = biological target: T1, Hexokinase HKDC1 (Homo sapiens, UniProt Q2TB90); experiment: inhibition of HKDC1 glucose phosphorylation – biochemical, W721R variant, dose response (AID 504729); format: functional
T1 sequence (Q2TB90 whole entry): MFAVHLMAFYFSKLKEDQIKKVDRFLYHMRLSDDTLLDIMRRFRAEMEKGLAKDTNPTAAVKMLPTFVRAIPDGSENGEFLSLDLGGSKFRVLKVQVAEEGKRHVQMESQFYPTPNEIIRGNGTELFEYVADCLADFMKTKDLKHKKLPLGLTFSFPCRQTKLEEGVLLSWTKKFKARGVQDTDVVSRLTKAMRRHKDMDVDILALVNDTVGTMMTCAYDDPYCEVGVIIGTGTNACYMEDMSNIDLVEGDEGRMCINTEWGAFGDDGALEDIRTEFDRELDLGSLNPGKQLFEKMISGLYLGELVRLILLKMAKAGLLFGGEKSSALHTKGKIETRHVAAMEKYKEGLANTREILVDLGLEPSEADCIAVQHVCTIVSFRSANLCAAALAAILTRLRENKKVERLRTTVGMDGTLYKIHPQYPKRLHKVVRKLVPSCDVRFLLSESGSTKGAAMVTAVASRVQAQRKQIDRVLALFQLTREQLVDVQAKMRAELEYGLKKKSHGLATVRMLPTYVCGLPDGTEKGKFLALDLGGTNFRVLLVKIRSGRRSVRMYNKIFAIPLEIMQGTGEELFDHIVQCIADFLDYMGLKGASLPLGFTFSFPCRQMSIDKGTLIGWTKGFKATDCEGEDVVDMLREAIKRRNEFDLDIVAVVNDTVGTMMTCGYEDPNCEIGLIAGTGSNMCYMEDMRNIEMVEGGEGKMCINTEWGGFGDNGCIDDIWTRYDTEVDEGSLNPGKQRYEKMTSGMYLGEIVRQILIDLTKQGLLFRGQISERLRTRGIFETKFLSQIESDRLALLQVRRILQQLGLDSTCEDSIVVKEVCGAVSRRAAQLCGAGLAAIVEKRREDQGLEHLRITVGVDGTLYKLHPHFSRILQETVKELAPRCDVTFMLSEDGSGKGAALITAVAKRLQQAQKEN

Estrogen receptor = biological target: T2, Estrogen receptor (Homo sapiens, UniProt P03372);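 note: potency for inhibiting coactivator peptide recruitment to the receptor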
T2 sequence (P03372 whole entry): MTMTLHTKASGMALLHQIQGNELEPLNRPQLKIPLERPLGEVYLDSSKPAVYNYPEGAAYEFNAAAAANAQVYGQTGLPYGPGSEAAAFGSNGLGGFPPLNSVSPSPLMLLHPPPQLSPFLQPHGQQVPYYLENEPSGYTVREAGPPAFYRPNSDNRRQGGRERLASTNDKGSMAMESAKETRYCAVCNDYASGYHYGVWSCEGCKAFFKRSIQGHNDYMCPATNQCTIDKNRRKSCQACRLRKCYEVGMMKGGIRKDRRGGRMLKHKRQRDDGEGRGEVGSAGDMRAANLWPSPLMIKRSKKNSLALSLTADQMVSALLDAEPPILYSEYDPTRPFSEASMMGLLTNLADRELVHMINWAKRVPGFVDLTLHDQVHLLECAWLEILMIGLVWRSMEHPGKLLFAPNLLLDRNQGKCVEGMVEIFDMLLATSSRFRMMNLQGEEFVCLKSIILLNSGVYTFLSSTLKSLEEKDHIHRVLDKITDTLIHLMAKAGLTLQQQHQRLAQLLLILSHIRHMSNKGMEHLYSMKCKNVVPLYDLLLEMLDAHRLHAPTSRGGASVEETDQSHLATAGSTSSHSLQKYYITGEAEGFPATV

Estrogen receptor beta = Estrogen receptor beta (Homo sapiens, UniProt Q92731);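 note: recombinant ER-beta bound to coactivator SRC1 peptide in presence of estradiol agonist; inhibitors block coactivator peptide binding and lower the FRET signal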
[1] = viability of PTEN-deleted HCT116 cells – cell-based, HCT116 PTEN knockout, dose response (AID 1047); format: functional;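 note: HCT116 colon tumor cells with PTEN knocked out; cells exposed to compound for 60 hours before readout; potency for loss of cell viability measured by luminescence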
[2] = viability of HCT116 lacking mutant beta-catenin – cell-based, human colon tumor, dose response (AID 1045); format: functional;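 note: HCT116 colon tumor cells with beta catenin knocked out; cells exposed to compound for 60 hours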
[3] = THP-1 cell cytotoxicity, dose response, cytotoxicity control for non-replicating M. tuberculosis project (AID 489025); format: functional
[4] = HepG2 cell cytotoxicity, dose response, cytotoxicity control for non-replicating M. tuberculosis project (AID 489018); format: functional; settings: Mycobacterium tuberculosis
[5] = Vero E6 cell cytotoxicity, dose response, cytotoxicity control for non-replicating M. tuberculosis project, secondary assay (AID 492998); format: functional, VeroE6; settings: Vero C1008
cells = format: functional
[6] = A cytotoxicity screen of small molecule inhibitors of the PhoP region in Salmonella typhi identified in the primary screen. [Related pubchem assays: 1850, 1864, 1985 ]; format: functional
[7] = biological target: Glyceraldehyde-3-phosphate dehydrogenase (Homo sapiens, UniProt P04406)
[8] = biological target: Alkaline phosphatase, placental type (Homo sapiens, UniProt P05187); experiment: human placental alkaline phosphatase inhibition – biochemical, luminescence, confirmation (AID 1512); format: functional
[9] = biological target: T3, Alkaline phosphatase, tissue-nonspecific isozyme (Homo sapiens, UniProt P05186); experiment: potency against alkaline phosphatase TNAP – biochemical, luminescent, dose response, SAR follow-up (AID 1056)
T3 sequence (P05186 whole entry): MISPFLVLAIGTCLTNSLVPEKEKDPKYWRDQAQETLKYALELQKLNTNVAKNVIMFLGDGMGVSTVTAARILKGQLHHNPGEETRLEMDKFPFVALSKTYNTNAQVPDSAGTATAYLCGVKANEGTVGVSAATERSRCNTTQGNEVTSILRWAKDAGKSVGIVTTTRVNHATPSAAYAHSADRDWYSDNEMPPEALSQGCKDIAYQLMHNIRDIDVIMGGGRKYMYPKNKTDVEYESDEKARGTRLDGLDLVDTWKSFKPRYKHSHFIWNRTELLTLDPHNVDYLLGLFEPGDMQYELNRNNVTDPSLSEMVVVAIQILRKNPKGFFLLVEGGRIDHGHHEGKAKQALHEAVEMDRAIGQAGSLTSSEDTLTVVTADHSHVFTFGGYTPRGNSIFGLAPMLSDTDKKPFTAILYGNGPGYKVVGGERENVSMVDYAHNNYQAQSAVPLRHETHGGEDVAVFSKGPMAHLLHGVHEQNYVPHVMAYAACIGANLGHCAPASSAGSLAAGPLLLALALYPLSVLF

[10] = biological target: T4, Replicative DNA helicase DnaB (Mycobacterium tuberculosis, UniProt P9WMR3); experiment: DnaB intein splicing inhibitors, dose response, biochemical, cell-free fluorescence (AID 449749); format: functional
T4 sequence (P9WMR3 whole entry): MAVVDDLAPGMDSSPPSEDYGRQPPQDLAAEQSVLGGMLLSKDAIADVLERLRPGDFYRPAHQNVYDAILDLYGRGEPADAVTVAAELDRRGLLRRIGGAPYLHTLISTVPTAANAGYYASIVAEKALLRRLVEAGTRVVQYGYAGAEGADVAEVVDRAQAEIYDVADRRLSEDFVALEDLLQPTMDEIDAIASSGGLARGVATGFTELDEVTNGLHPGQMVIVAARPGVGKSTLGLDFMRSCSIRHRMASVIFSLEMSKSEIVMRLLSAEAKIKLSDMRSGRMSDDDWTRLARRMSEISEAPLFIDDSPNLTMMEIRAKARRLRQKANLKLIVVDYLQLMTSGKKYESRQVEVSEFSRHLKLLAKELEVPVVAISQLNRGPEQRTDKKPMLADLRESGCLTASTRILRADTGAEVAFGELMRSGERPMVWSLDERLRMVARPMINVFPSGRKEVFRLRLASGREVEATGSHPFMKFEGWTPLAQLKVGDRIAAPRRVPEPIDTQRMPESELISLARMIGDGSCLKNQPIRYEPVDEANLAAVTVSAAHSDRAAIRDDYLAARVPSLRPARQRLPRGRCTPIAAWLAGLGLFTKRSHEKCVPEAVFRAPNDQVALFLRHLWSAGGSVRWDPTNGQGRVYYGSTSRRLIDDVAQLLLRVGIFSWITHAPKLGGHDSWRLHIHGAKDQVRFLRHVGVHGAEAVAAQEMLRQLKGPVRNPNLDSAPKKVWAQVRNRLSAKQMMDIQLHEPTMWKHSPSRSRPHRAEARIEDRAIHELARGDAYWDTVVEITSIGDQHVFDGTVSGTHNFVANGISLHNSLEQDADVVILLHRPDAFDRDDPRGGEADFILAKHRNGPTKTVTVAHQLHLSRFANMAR

Protein RecA = biological target: T5, Protein RecA (Mycobacterium tuberculosis, UniProt P9WHJ3); experiment: Fluorescence Cell-Free Homogeneous Dose Retest to Identify Inhibitors of RecA-Intein Splicing Activity. [Related pubchem assays (depositor defined):AID2097, AID2223, AID489010, AID492950]; format: functional
T5 sequence (P9WHJ3 whole entry): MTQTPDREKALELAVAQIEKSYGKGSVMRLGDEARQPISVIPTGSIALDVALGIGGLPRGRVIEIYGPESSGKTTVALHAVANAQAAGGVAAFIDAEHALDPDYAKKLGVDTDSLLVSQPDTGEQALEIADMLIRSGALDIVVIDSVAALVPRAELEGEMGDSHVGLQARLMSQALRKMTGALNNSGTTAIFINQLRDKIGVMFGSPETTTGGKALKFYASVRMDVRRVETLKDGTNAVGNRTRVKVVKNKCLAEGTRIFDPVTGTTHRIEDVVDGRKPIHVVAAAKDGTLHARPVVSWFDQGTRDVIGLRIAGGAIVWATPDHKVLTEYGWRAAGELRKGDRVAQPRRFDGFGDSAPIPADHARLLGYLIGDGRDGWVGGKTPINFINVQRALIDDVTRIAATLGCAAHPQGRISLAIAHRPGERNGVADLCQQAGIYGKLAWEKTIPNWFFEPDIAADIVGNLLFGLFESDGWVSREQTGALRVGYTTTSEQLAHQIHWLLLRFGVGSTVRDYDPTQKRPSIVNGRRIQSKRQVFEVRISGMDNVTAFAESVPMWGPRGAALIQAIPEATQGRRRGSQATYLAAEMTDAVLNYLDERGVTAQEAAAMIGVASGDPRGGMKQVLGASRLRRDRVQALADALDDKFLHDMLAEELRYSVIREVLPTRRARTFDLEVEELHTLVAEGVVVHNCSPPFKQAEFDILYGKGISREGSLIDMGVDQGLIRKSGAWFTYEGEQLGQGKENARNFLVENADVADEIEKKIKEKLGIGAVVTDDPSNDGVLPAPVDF

Wee1-like protein kinase = Wee1-like protein kinase (Homo sapiens, UniProt P30291); experiment: HeLa cell cycle G2/M accumulation – FACS, mechanism study for Wee1 degradation inhibitor project, late-stage follow-up, panel member Wee1 Degradation (AID 2088)
[11] = biological target: G2/mitotic-specific cyclin-B1 (Homo sapiens, UniProt P14635); experiment: HeLa cell cycle G2/M accumulation – FACS, mechanism study for Wee1 degradation inhibitor project, late-stage follow-up, panel member Cyclin B Degradation (AID 2088)
Chain of G2/mitotic-specific cyclin-B1 (P14635 whole entry): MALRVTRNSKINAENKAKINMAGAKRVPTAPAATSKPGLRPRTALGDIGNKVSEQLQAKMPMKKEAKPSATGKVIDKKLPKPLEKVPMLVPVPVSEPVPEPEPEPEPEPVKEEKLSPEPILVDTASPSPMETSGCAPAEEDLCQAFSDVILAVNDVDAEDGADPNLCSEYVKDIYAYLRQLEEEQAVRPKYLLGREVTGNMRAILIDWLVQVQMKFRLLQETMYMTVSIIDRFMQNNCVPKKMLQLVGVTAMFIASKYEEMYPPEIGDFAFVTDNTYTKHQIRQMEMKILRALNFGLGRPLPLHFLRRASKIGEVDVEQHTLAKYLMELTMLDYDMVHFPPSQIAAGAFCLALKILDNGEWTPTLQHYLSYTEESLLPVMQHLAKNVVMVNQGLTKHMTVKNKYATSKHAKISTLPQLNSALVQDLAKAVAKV

Chain of Wee1-like protein kinase (P30291 whole entry): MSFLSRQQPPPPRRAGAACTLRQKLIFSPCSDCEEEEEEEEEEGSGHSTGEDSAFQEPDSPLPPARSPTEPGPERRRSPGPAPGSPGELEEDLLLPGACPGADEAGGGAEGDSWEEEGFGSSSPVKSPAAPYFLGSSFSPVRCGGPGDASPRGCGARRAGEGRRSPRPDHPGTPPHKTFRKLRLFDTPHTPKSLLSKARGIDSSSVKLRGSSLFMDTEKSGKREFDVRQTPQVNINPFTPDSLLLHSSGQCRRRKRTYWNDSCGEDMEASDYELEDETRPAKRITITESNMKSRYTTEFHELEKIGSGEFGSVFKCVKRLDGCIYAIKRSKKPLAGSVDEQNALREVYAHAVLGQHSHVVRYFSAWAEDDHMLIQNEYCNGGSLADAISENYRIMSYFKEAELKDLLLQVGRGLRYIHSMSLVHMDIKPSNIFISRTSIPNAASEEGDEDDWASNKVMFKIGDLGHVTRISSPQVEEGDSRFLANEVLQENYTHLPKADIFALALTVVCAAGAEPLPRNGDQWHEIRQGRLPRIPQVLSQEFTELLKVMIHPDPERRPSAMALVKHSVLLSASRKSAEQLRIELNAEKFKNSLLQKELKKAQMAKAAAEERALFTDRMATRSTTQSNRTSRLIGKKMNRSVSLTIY
Chain of Glyceraldehyde-3-phosphate dehydrogenase (P04406 whole entry): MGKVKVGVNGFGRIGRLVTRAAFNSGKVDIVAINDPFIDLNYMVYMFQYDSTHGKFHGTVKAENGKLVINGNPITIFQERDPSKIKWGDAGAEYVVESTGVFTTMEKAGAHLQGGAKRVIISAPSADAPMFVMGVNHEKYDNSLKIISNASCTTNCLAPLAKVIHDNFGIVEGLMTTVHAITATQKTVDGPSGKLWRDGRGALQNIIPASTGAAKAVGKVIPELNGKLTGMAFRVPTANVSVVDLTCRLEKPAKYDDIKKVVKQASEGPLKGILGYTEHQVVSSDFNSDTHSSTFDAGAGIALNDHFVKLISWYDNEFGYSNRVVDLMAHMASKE
Chain of Alkaline phosphatase, placental type (P05187 whole entry): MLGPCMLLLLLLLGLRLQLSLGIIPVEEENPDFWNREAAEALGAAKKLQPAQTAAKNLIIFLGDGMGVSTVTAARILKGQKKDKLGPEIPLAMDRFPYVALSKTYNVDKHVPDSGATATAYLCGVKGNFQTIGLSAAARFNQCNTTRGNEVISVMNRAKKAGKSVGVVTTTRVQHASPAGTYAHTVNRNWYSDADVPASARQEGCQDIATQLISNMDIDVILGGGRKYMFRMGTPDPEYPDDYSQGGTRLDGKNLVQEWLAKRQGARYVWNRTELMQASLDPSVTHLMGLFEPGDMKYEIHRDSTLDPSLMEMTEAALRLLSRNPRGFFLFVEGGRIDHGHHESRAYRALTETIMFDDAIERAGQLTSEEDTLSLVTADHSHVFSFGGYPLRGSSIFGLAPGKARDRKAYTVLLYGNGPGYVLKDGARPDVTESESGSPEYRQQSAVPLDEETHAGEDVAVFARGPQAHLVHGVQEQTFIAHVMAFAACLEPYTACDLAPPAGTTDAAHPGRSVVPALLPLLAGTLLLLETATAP
Chain of Estrogen receptor beta (Q92731 whole entry): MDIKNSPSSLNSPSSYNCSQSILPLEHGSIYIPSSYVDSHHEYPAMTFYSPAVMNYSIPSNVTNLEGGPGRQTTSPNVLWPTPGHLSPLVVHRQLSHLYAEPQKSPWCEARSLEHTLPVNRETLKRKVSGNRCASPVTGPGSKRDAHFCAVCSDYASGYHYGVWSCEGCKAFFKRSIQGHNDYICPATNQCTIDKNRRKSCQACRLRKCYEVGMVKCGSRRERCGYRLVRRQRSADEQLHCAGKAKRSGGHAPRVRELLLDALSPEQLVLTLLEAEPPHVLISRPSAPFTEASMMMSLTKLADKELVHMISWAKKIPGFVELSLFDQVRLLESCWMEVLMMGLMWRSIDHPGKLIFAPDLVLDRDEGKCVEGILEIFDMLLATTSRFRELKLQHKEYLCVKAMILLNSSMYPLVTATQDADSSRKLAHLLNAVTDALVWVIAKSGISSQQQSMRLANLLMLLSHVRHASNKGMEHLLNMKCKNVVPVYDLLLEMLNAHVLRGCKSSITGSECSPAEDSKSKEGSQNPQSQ

Cc1nc2c(c(=O)c3ccccc3n2C)c(=O)n1-c1ccc(F)cc1
IC50 (Hexokinase HKDC1): 8.25 µM (active)

CCOC(=O)c1c(C)oc2c1c(C(c1cccnc1)N1CCCCC1)c(O)c1ccccc12 (stereo not drawn)
IC50 (Estrogen receptor): > 50 µM (not active) | IC50 (Estrogen receptor beta): > 50 µM (not active)

CCOc1cc(CNC(C)(C)CO)cc(Br)c1OCc1ccc(Cl)cc1Cl
EC50 [1]: 7.54 µM (active) | EC50 [2]: 6.52 µM (active) | CC50 [3]: 13.4 µM (active) | CC50 [4]: 13.7 µM (active) | CC50 [5]: 7.44 µM (active) | IC50 (cells): 10.5 µM (active)

COc1ccc2nc(NC(=O)C3CC(=O)N(c4ccccc4)C3)sc2c1 (stereo not drawn)
EC50 [6]: > 50 µM (active)

COc1ccccc1-c1nnc(SC)[nH]1
IC50 [7]: > 100 µM (not active) | IC50 [8]: > 100 µM (inactive) | IC50 [9]: 7.95 µM (active)

CN1CCc2nc(SCC(=O)Nc3ccc(F)cc3)c(C#N)cc2C1
IC50 (Estrogen receptor): > 50 µM (not active) | AC50 [10]: > 380 µM (inactive) | EC50 (Protein RecA): 38 µM (active)

Cc1ccc(NC(=O)OCc2cccs2)cc1
EC50 [6]: > 50 µM (active)

OCCSc1n[nH]c(-c2ccccc2)n1
IC50 [7]: > 100 µM (not active) | IC50 [8]: > 100 µM (inactive) | IC50 [9]: 16.2 µM (active)

Cc1cc(C)n2cc(CSc3nnc(-c4ccccc4)c(-c4ccccc4)n3)nc2n1
IC50 (Hexokinase HKDC1): 12.5 µM (active)

[O-][n+]1onc2c3cc(-c4ccccc4)[nH]c3ccc21
EC50 (Wee1-like protein kinase): > 6.19 µM (active) | EC50 [11]: > 55.7 µM (inactive)

Cc1cc(O)nc(-n2nc(C)cc2NC(=O)Cc2ccccc2)n1
EC50 (Wee1-like protein kinase): > 49.7 µM (inactive) | EC50 [11]: > 49.7 µM (inactive)

Cc1cc(O)nc(-n2nc(C)cc2NC(=O)c2cccc(Cl)c2)n1
EC50 (Wee1-like protein kinase): > 49.7 µM (inactive) | EC50 [11]: > 49.7 µM (inactive)

CC1(C)N=C(N)N=C(Nc2cccc(Br)c2)N1
EC50 [6]: > 50 µM (active)
